The values that follow come from patent US20150037399A1, “NOVEL USE OF PIPOXOLAN AND ITS PHARMACEUTICAL COMPOSITION” (China Medical University, priority 2013, published 2015).

The test system of test [1] is TUNEL positive cells. Kind of test: TUNEL assay in cortex of ischemic rats. It is filed as in vivo, Sprague-Dawley (SD) rats. To be noted: rat cortex, 24 hr after focal ischemia. Here is the method:
(§1) Nine rats were randomly assigned into 3 treatment groups, three rats for each group. Group 1 rats were treated with saline and groups 2 and 3 treated with pipoxolan (10 mg/kg and 30 mg/kg, respectively). Focal ischemia was induced by occlusion of both CCA and the right MCA as previously described. Twenty four hours after focal ischemia, rats were deeply anesthetized by intraperitoneal injection of 50 mg/kg of zoletil® followed by intracardiac perfusion with 200 ml of 0.9% saline, followed by 4% paraformaldehyde in 0.1 M PBS and animals were decapitated. The percentage of positive TUNEL staining cells within areas of the cortex was estimated.

Test [2] has as its system MEK. The experiment in a line: Western blot of MEK in PDGF-BB-stimulated VSMCs. It is filed as cell-based. Here is the method: (§2) The role of matrix metalloproteinase-2/9 (MMP-2/9) and the Ras/MEK/ERK signaling pathways were used to evaluate the effect of pipoxolan on VSMCs migration. The protein expression levels were determined by Western blot analysis. Each vertical bars represented mean±S.E. **p<0.01 and ***p<0.001 compared with control group (n=6 in each group).

For test [3], the system named is Ras. Kind of test: Western blot of Ras in PDGF-BB-stimulated VSMCs. It is filed as cell-based. The protocol:
as §2

For test [4], the system named is PDGF-BB-induced migration of A7r5 cells (VSMCs). Kind of test: In vitro wound healing assay. It is filed as cell-based. To be noted: PDGF-BB 30 ng/ml, 5, 10 and 15 μM, 24, 48 and 72 hr, dose-dependent. Here is the method:
The VSMCs cell line A7r5 was purchased from Bioresource Collection and Research Center (Hsinchu, Taiwan). A7r5 cells were plated onto 6-well plates in DMEM, supplemented with 10% FBS, 100 units/ml penicillin, 100 μg/ml streptomycin and 2 mM L-glutamine and grown at 37° C. under a humidified 5% CO2 and 95% air at one atmosphere. The effects of pipoxolan on VSMCs migration were evaluated by a wound-healing assay. Platelet-derived growth factor (PDGF) form VMSCs can cause cell migration, which results in intimal hyperplasia. A7r5 cells were plated in 6-well plates (2×10^5 cells per well) and damage was performed with a single scratch wound using a sterile micropipette tip. Cells were then incubated with or without PDGF-BB (30 ng/ml) and pipoxolan (5, 10, 15 μM) in serum-reduced DMEM medium (containing 0.5% fetal bovine serum). The extent of wound closure was determined using a phase contrast microscope at 24, 48, and 72 hr following wounding. Cell migration was expressed by the migration distance of drug-treated cells (mm) divided by the migration distance of untreated cells (mm).

Test [5] deals with MMP-9. The experiment in a line: Western blot of MMP-9 in PDGF-BB-stimulated VSMCs. It is filed as cell-based. As to conditions: Rattus norvegicus, VSMC, read-out: inhibition of MMP-9 level. The protocol:
as §2

For test [6], the system named is p-ERK. The experiment in a line: Western blot of p-ERK in PDGF-BB-stimulated VSMCs. It is filed as cell-based. The protocol: as §2
Test [7] has as its system PDGF-BB-induced migration of A7r5 cells (VSMCs). Kind of test: Transwell migration assay. As to conditions: PDGF-BB 30 ng/ml 48 hr, vs PDGF-BB control, read-out: percent inhibition of cell migration across the membrane. It is filed as cell-based. The protocol:
The VSMCs cell line A7r5 was purchased from Bioresource Collection and Research Center (Hsinchu, Taiwan). A7r5 cells were plated onto 6-well plates in DMEM, supplemented with 10% FBS, 100 units/ml penicillin, 100 μg/ml streptomycin and 2 mM L-glutamine and grown at 37° C. under a humidified 5% CO2 and 95% air at one atmosphere. Effects of pipoxolan on VSMCs migration were further investigated by a transwell migration chamber with a collagen-coated polycarbonate filter. A7r5 cells (2×10^5 cells) were seeded on a transwell apparatus (a 6.5-mm polyethylene terephthalate membrane with 8-μm pores) and treated with pipoxolan (0, 5, 10 and 15 μM) in the presence of PDGF-BB (30 ng/ml) for 48 hr. The cells were then trypsinized, resuspended in 0.5% FBS medium. FBS/DMEM (10%) was added to the bottom chamber of each well as the chemoattractant. Cells were allowed to migrate for 8 hr through the membrane to the underside of the apparatus. Cells were then fixed with methanol for 10 min and stained with Giemsa solution for 30 min. The cells migrating to the lower outside of the insert membrane were counted manually using a microscope and the NIS-Elements software.

Test [8] relates to cleaved caspase-3 positive cells. The experiment in a line: Immunohistochemical staining of cleaved caspase-3 in rat brain slices. It is filed as in vivo, Sprague-Dawley (SD) rats. To be noted: rat cortex. Here is the method: as §1, with “estimated. Rat brain slices were incubated with anti-caspase-3 antibodies (GTX73093, GeneTex Inc., USA) overnight and immunohistochemical labeled using a NovoLink Polymer Detection System Kit (Leica Microsystems Inc., Newcastle Upon Tyne, UK). The percentage of positive caspase-3 staining cells within the cortex was estimated based on the average number of cells in a defined area.” for “estimated.”

SMILES strings stand for the structures.

For the compound `Cl.O=C1OC(CCN2CCCCC2)OC1(c1ccccc1)c1ccccc1` (centres unmarked) [pipoxolan, 5,5-diphenyl-2-(2-piperidin-1-ylethyl)-1,3-dioxolan-4-one hydrochloride], the “percent reduction of TUNEL positive cells” value in test [1] (10 mg/kg) is reported as 31.25%; in test [1] (30 mg/kg), 46.88%. Further, the entries for the “reduction of MEK protein level” value in test [2] (5 μM), in test [2] (10 μM) and in test [2] (15 μM) were 21.67%, 21% and 26.67%, respectively. In addition, the figures for the “reduction of Ras protein level” value in test [3] (5 μM), in test [3] (10 μM) and in test [3] (15 μM) were 21%, 24.75% and 24%, respectively. Further, in test [4], the “effect on PDGF-BB-induced cell migration (wound closure)” value is on record as “markedly inhibited”. The inhibition at 5 µM in test [5] (5 μM) worked out at 39.4%; in test [7] (5 μM) it was 46.2%. Also, the inhibition at 10 µM in test [5] (10 μM) came out at 45.4%; in test [7] (10 μM) it was 62.2%. Besides, the inhibition at 15 µM was determined as 36.6% in test [5] (15 μM) and 76.5% in test [7] (15 μM). For the same compound, the “reduction of p-ERK protein level” value in test [6] (5 μM) was 50.33%; in test [6] (10 μM), 51.67%; in test [6] (15 μM) it was 75%. The “reduction of cleaved caspase 3 positive cells” value in test [8] (10 mg/kg) worked out at 37.18%; in test [8] (30 mg/kg), 63.44%.
